Where “and” joins values, the source holds several entries; their conditions need not be identical. Equal entries are not always repeated.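 Interpolation was linear, between the two tested concentrations surrounding the appropriate level; five concentrations were tested over 48 hours in 96-well plates. GI50: concentration for 50% inhibition of growth. TGI is the concentration that stops growth completely.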 Where only a bound is given, the exact number is not on record here.

Some test systems named below: PC-3 prostate; HCC-2998 colon; MOLT-4 leukemia; MDA-MB-231 breast; HCT-15 colon; CCRF-CEM leukemia; SNB-19 CNS; BT-549 breast; K-562 leukemia; HL-60(TB) leukemia.
Experiment in all cases: NCI-60 cell line screen, 48 h

For the molecule `O=C(/C=C/c1ccc(O)c(O)c1)N1CCN(c2ccc(Cl)cc2)CC1`, the GI50 in the assay with PC-3 prostate was 4670 nM; with HCC-2998 colon it was 10.5 µM; in the assay with MOLT-4 leukemia, 3470 nM; in the assay with MDA-MB-231 breast it was 5.28 µM; in the assay on HCT-15 colon, 3.83 µM; in the assay with CCRF-CEM leukemia it was 1.96 µM. For the same molecule, the results for the GI50 with SNB-19 CNS, in the assay with BT-549 breast and in the assay with K-562 leukemia were 5.17 µM, 5.21 µM and 4.77 µM, respectively. The TGI in the assay with PC-3 prostate is 31.1 µM; in the assay on HCC-2998 colon it was 23.8 µM; in the assay with MOLT-4 leukemia, greater than 100 µM; with MDA-MB-231 breast it was 35.6 µM; with HCT-15 colon it was 29.2 µM; in the assay with CCRF-CEM leukemia it was 45.1 µM. The TGI came out at 98.1 µM in the assay with SNB-19 CNS, 45.6 µM in the assay on BT-549 breast and 58.7 µM in the assay with K-562 leukemia.

In the case of `C=CCC(N[C@@H](CO)c1ccccc1)c1ccc2ccccc2n1` (some centres not stated), the GI50 in the assay with PC-3 prostate was greater than 100000 nM; in the assay with HCC-2998 colon, greater than 100 µM; with MDA-MB-231 breast, 45.8 µM; with HL-60(TB) leukemia, 12300 nM; with HCT-15 colon it was greater than 100 µM; in the assay with CCRF-CEM leukemia, 46.1 µM. For the same molecule, the values for the GI50 in the assay on BT-549 breast and in the assay on K-562 leukemia were greater than 100 µM and 36.2 µM, respectively. Also, the TGI in the assay on PC-3 prostate is greater than 100 µM; in the assay on HCC-2998 colon it was greater than 100 µM; in the assay on MDA-MB-231 breast it was greater than 100 µM; with HL-60(TB) leukemia it was 51.5 µM; with HCT-15 colon, greater than 100 µM; in the assay with CCRF-CEM leukemia, greater than 100 µM. Also, the TGI in the assay on BT-549 breast and with K-562 leukemia was greater than 100 µM in each case.

On to `CCn1c(-c2nonc2N)nc2ccccc21`, for which the GI50 is greater than 25000 nM with PC-3 prostate; greater than 25 µM in the assay on HCC-2998 colon; greater than 25000 nM in the assay on MOLT-4 leukemia; greater than 25 µM in the assay on MDA-MB-231 breast; greater than 25000 nM with HL-60(TB) leukemia; greater than 25 µM in the assay with HCT-15 colon. In addition, the GI50 in the assay with CCRF-CEM leukemia, in the assay on SNB-19 CNS, in the assay with BT-549 breast and in the assay on K-562 leukemia was greater than 25 µM each time. The TGI in the assay with PC-3 prostate, with HCC-2998 colon, with MOLT-4 leukemia, in the assay on MDA-MB-231 breast, with HL-60(TB) leukemia and in the assay on HCT-15 colon was greater than 25 µM each time. Further, the TGI in the assay on CCRF-CEM leukemia, in the assay on SNB-19 CNS, in the assay with BT-549 breast and in the assay on K-562 leukemia was greater than 25 µM in each case.

In the case of `O=C1CCC(c2ccccc2)=NN1c1nc2ccccc2s1`, the TGI with PC-3 prostate was 69.2 µM; with HCC-2998 colon, greater than 61 µM; in the assay on MOLT-4 leukemia, greater than 94.4 µM; with MDA-MB-231 breast it was 55.9 µM; in the assay on HL-60(TB) leukemia it was 99.2 µM; in the assay on HCT-15 colon, 99.1 µM. Further, the TGI in the assay on CCRF-CEM leukemia is 71.8 µM; in the assay with SNB-19 CNS, greater than 100 µM; with BT-549 breast, 82.5 µM; in the assay on K-562 leukemia, greater than 100 µM.

With `CN(C)CCCN1c2ccccc2Sc2ccc(C(F)(F)F)cc21`, the GI50 is 1670 nM with PC-3 prostate; 1.46 µM and 10.5 µM and 4.5 µM with HCC-2998 colon; 1860 nM in the assay with MOLT-4 leukemia; 1.45 µM in the assay on MDA-MB-231 breast; 1820 nM with HL-60(TB) leukemia; 1.92 µM with HCT-15 colon. Moreover, the GI50 is 1.92 µM with CCRF-CEM leukemia, 1.71 µM in the assay on SNB-19 CNS, 1.77 µM with BT-549 breast and 2.03 µM in the assay with K-562 leukemia. For the same molecule, the TGI with PC-3 prostate was 4 µM and 28.6 µM; in the assay on HCC-2998 colon, 2.89 µM and 23.8 µM and 15.8 µM; in the assay with MOLT-4 leukemia, 4.19 µM and 39.2 µM; with MDA-MB-231 breast it was 2.9 µM and 26.5 µM; in the assay on HCT-15 colon, 3.73 µM and 31 µM and 31.1 µM; in the assay on CCRF-CEM leukemia, 5 µM and 38.5 µM and 39 µM. The TGI is 3.27 µM and 28.8 µM and 30.3 µM with SNB-19 CNS; 3.32 µM and 26.5 µM in the assay on BT-549 breast; 4.08 µM and 30.9 µM in the assay on K-562 leukemia.

Take `CCCCNc1ncnc2c1cnn2-c1ccccc1`: the GI50 in the assay with PC-3 prostate was 2380 nM; with HCC-2998 colon, 5.72 µM; in the assay with MOLT-4 leukemia it was 3750 nM; with MDA-MB-231 breast, 16.9 µM; in the assay with HL-60(TB) leukemia it was 2350 nM; in the assay on HCT-15 colon, 0.947 µM. For the same molecule, the GI50 was 5.24 µM with CCRF-CEM leukemia, 8.69 µM with SNB-19 CNS and 6.71 µM in the assay with BT-549 breast. Further, the TGI was 56.9 µM in the assay with PC-3 prostate; 37.8 µM with HCC-2998 colon; greater than 100 µM in the assay on MOLT-4 leukemia; 73 µM with MDA-MB-231 breast; 53 µM in the assay on HL-60(TB) leukemia; greater than 50.1 µM in the assay on HCT-15 colon. For the same molecule, the TGI in the assay on CCRF-CEM leukemia was greater than 100 µM; in the assay on SNB-19 CNS, greater than 100 µM; in the assay on BT-549 breast, greater than 69 µM.

Turning to `CCCCCCCCCCCC/C=C\CC[C@@H](O)[C@H](O)CC[C@H](O)[C@@H]1CC[C@@H](CCCCCCCC2=C[C@H](C)OC2=O)O1`, the GI50 was 2220 nM with PC-3 prostate; 1720 nM in the assay with MOLT-4 leukemia; 12.4 µM in the assay on MDA-MB-231 breast; 8.86 µM with HCT-15 colon; 6.82 µM in the assay with CCRF-CEM leukemia; 9.85 µM with SNB-19 CNS. The GI50 in the assay on BT-549 breast is 12.8 µM. For the same molecule, the TGI stood at 16.5 µM in the assay on PC-3 prostate; 37.1 µM in the assay on HCC-2998 colon; 4.88 µM in the assay with MOLT-4 leukemia; 35.3 µM with MDA-MB-231 breast; 6.56 µM in the assay with HL-60(TB) leukemia; 33.8 µM with HCT-15 colon. For the same molecule, the TGI in the assay on CCRF-CEM leukemia is greater than 100 µM; in the assay with SNB-19 CNS, 29.3 µM; in the assay on K-562 leukemia, 30 µM.

With `Cc1cc(NC(=O)NCc2ccc(N3C(N)=NC(N)=NC3(C)C)cc2)ccc1S(=O)(=O)F`, the GI50 is 96.2 nM in the assay with PC-3 prostate; 1.96 µM in the assay on HCC-2998 colon; 2010 nM with MOLT-4 leukemia; greater than 62.2 µM in the assay on MDA-MB-231 breast; 716 nM in the assay with HL-60(TB) leukemia; 11.2 µM with HCT-15 colon. In addition, the GI50 with CCRF-CEM leukemia was 0.815 µM; in the assay with SNB-19 CNS, 11.7 µM; with BT-549 breast, 4.97 µM; in the assay with K-562 leukemia, 0.484 µM. The TGI in the assay on PC-3 prostate was 31 µM; in the assay with HCC-2998 colon, greater than 100 µM; in the assay on MOLT-4 leukemia, greater than 100 µM; in the assay with MDA-MB-231 breast it was greater than 100 µM; in the assay with HL-60(TB) leukemia, greater than 57.5 µM; in the assay with HCT-15 colon, greater than 100 µM. Moreover, the TGI in the assay on CCRF-CEM leukemia is greater than 100 µM; in the assay on SNB-19 CNS, greater than 100 µM; in the assay with BT-549 breast it was greater than 67.6 µM; in the assay with K-562 leukemia, greater than 100 µM.

The values above are taken from PubChem BioAssay (NCI).
